Reference: US4065619A, “7-(α-Sulfoacylamido)cephalosporins” (Takeda Chemical Industries, Ltd., priority 1971, dated 1977)
In brackets after ≈: the same amount, converted by molar mass.

Key:
Type in all cases: cell-based
[1] = system: Pseudomonas aeruginosa (Pd 1); test: Minimum inhibitory concentration, Pseudomonas aeruginosa (Pd 1)
[2] = system: Pseudomonas aeruginosa (NCTC 10490); test: Minimum inhibitory concentration, Pseudomonas aeruginosa (NCTC 10490); details: NCTC10490
[3] = system: Pseudomonas aeruginosa (Pd 13); test: Minimum inhibitory concentration, Pseudomonas aeruginosa (Pd 13)
[4] = system: Staphylococcus aureus (penicillin G resistant); test: Minimum inhibitory concentration, Staphylococcus aureus (penicillin G resistant)
[5] = system: Staphylococcus aureus (209P); test: Minimum inhibitory concentration, Staphylococcus aureus 209P
[6] = system: Pseudomonas aeruginosa (T-3); test: Minimum inhibitory concentration, Pseudomonas aeruginosa (T-3)
[7] = system: Pseudomonas aeruginosa (Pd 12); test: Minimum inhibitory concentration, Pseudomonas aeruginosa (Pd 12)
[8] = system: Pseudomonas aeruginosa (NCTC); test: Minimum inhibitory concentration, Pseudomonas aeruginosa (NCTC)
Pseudomonas aeruginosa = test: Minimum inhibitory concentration, Pseudomonas aeruginosa (strain not given)
[9] = system: Pseudomonas aeruginosa (10490); test: Minimum inhibitory concentration, Pseudomonas aeruginosa (10490)
[10] = system: Staphylococcus aureus (No. 87, penicillin G resistant); test: Minimum inhibitory concentration, Staphylococcus aureus (No. 87, penicillin G resistant)

Q: How did the MIC [1] turn out when `Cc1cccc[n+]1CC1=C(C(=O)[O-])N2C(=O)[C@@H](NC(=O)C(c3ccccc3)S(=O)(=O)O)[C@H]2SC1` (stereo partly drawn) [Example 5, sodium N-[7-(α-sulfophenylacetamido)-ceph-3-em-3-ylmethyl]-2'-methylpyridinium-4-carboxylate] was run?
A: The MIC was 3 µg/mL.

Q: What about the MIC [2] of the same molecule?
A: Its MIC is 2 µg/mL.

Q: `O=C([O-])C1=C(C[n+]2ccccc2)CS[C@@H]2[C@H](NC(=O)C(c3ccccc3)S(=O)(=O)O)C(=O)N12` (some centres unmarked) [Example 1] was tested. Which MIC [1] did it give?
A: Its MIC is 2 µg/mL (≈ 4.09 µM).

Q: And the MIC [3]?
A: Its MIC is 5 µg/mL (≈ 10.2 µM).

Q: What about the MIC [4] of the same molecule?
A: Its MIC is 2 µg/mL (≈ 4.09 µM).

Q: And the MIC [2]?
A: The MIC was 1 µg/mL (≈ 2.04 µM).

Q: And the MIC [5]?
A: The MIC was 1 µg/mL (≈ 2.04 µM).

Q: And the MIC [6]?
A: The MIC was 5 µg/mL (≈ 10.2 µM).

Q: And the MIC [7]?
A: Its MIC is 10 µg/mL (≈ 20.4 µM).

Q: How did the MIC [8] turn out when `NC(=O)c1cc[n+](CC2=C(C(=O)[O-])N3C(=O)[C@@H](NC(=O)C(c4ccccc4)S(=O)(=O)O)[C@H]3SC2)cc1` (stereo partly drawn) [Example 3, sodium N-[7-(α-sulfophenylacetamido)ceph-3-em-3-ylmethyl]-4'-carbamoyl-pyridinium-4-carboxylate] was run?
A: Its MIC is 0.5 µg/mL.

Q: And the MIC [1]?
A: Its MIC is 1 µg/mL.

Q: For `NC(=O)c1ccc[n+](CC2=C(C(=O)[O-])N3C(=O)[C@@H](NC(=O)C(c4ccccc4)S(=O)(=O)O)[C@H]3SC2)c1` (some centres unmarked), which MIC [7] is on record?
A: The MIC was 1 µg/mL (≈ 1.88 µM).

Q: For `Nc1ccc(C(C(=O)NC2C(=O)N3C(C(=O)[O-])=C(C[n+]4ccccc4)CSC23)S(=O)(=O)O)cc1` (stereo not drawn) [Example 9, sodium 7-[α-sulfo-α-(p-aminophenyl)acctamido]-3-(pyridiniummethyl)ceph-3-em-4-carboxylate], which MIC [5] is on record?
A: Its MIC is 5 µg/mL.

Q: What about the MIC (Pseudomonas aeruginosa) of the same molecule?
A: Its MIC is 5 µg/mL.

Q: With `O=C([O-])C1=C(C[n+]2cccc3ccccc32)CS[C@@H]2[C@H](NC(=O)C(c3ccccc3)S(=O)(=O)O)C(=O)N12` (some centres unmarked) as the molecule, how does the MIC [7] read?
A: Its MIC is 5 µg/mL (≈ 9.27 µM).

Q: For `NNC(=O)c1cc[n+](CC2=C(C(=O)[O-])N3C(=O)[C@@H](NC(=O)C(c4ccccc4)S(=O)(=O)O)[C@H]3SC2)cc1` (some centres unmarked), which MIC [7] is on record?
A: The MIC was 10 µg/mL (≈ 18.3 µM).

Q: What does the source list for `CCCCC(C(=O)NC1C(=O)N2C(C(=O)[O-])=C(C[n+]3ccccc3)CSC12)S(=O)(=O)O` (centres unmarked) [Example 7]?
A: MIC [9]: 2 µg/mL (≈ 4.26 µM); MIC [10]: 2 µg/mL (≈ 4.26 µM)

Q: With `NC(=O)c1cc[n+](CC2=C(C(=O)[O-])N3C(=O)[C@@H](NC(=O)C(c4ccccc4)S(=O)(=O)O)[C@H]3SC2)cc1` (some centres unmarked) [drawing 13] as the molecule, how does the MIC [7] read?
A: The MIC was 0.5 µg/mL (≈ 0.939 µM).

Q: How did the MIC [1] turn out when `O=C([O-])C1=C(C[n+]2ccccc2)CS[C@@H]2[C@H](NC(=O)C(c3ccsc3)S(=O)(=O)O)C(=O)N12` (some centres unmarked) [Example 13] was run?
A: The MIC was 2 µg/mL (≈ 4.04 µM).

Q: What about the MIC [2] of the same molecule?
A: The MIC was 1 µg/mL (≈ 2.02 µM).

Q: With `O=C([O-])C1=C(C[n+]2ccc3ccccc3c2)CS[C@@H]2[C@H](NC(=O)C(c3ccccc3)S(=O)(=O)O)C(=O)N12` (some centres unmarked) as the molecule, how does the MIC [7] read?
A: Its MIC is 5 µg/mL (≈ 9.27 µM).

Q: Which MIC [7] does the source give for `O=C([O-])C1=C(C[n+]2cccc(C(=O)O)c2)CS[C@@H]2[C@H](NC(=O)C(c3ccccc3)S(=O)(=O)O)C(=O)N12` (some centres unmarked) here?
A: Its MIC is 5 µg/mL (≈ 9.37 µM).
